Earlier results as cited in US20220265635A1, “TREATMENT OF NEUROLOGICAL DISEASE” (Aclipse One Inc., priority 2018, published 2022).

Tested on: dopamine receptors
Conditions: background description; cited from earlier work

CN1CCc2cccc3c2[C@H]1Cc1ccc(O)c(O)c1-3 [(6aR)-6-methyl-5,6,6a,7-tetrahydro-4H-dibenzo[de,g]quinoline-10,11-diol, reference compound]
activity on dopamine receptors (in words): strong dopamine agonist
